Laboratory results reported in US20210380595A1 (ARAXES PHARMA LLC, priority 2018, published 2021).

Molecular target: T1, KRAS G12C 1-169, his-tagged protein, GDP-loaded (Homo sapiens, UniProt P01116, G12C)
T1 construct: KRAS G12C 1-169, his-tagged protein, GDP-loaded
Experiment: Biochemical assay: covalent modification of KRAS G12C measured by mass spectrometry (RapidFire/TOF or Q-Exactive); further: time not given here
Assay type: binding
How it was run: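 GDP-loaded KRAS G12C 1-169 (his-tagged, 2 μM or 0.5 μM in 20 mM Hepes, 150 mM NaCl, 1 mM MgCl2) reacted with compound at 32 μM or 8 μM final, then quenched with formic acid. Intact-protein LC-MS (RapidFire/TOF or Q-Exactive) with charge-envelope deconvolution; % modification from modified vs unmodified peak intensities.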

[1] = tested at a concentration of 8 μM

SMILES	Bind % (tested at 32 μM)	Bind % [1]
C=CC(=O)N1CC2(CCN(c3cc(NCCc4ccccn4)c(F)c(-c4c(C)ccc5[nH]ncc45)c3C#N)CC2)C1 [Compound I-133, 6-(2-acryloyl-2,7-diazaspiro[3.5]nonan-7-yl)-3-fluoro-2-(5-methyl-1H-indazol-4-yl)-4-((2-(pyridin-2-yl)ethyl)amino) benzonitrile]	+ (+ indicates binding activity greater than 0% and up to 50%)	
C=CC(=O)N1CC2(CCN(c3cc(OCCCN(C)C)c(Cl)c(-c4c(C)ccc5[nH]ncc45)c3C#N)CC2)C1 [Compound I-125, 6-(2-acryloyl-2,7-diazaspiro[3.5]nonan-7-yl)-3-chloro-4-(3-(dimethylamino)propoxy)-2-(5-methyl-1H-indazol-4-yl)benzonitrile]	++ (++ indicates binding activity from 50 to 75%)	
C=CC(=O)N1CC2(CCN(c3cc(N4CCC5(CCN(C)C5)C4)cc(-c4c(C)ccc5[nH]ncc45)c3C#N)C2)C1 (stereo not shown) [Compound I-41, 2-(2-acryloyl-2,6-diazaspiro[3.4]octan-6-yl)-6-(5-methyl-1H-indazol-4-yl)-4-(7-methyl-2,7-diazaspiro[4.4]nonan-2-yl)benzonitrile]	+++ (+++ indicates binding activity greater than 75%)	
C=CC(=O)N1CC2(CCN(c3cc(OCc4ccccn4)cc(-c4c(C)ccc5cnn(C)c45)c3C#N)C2)C1 [Compound I-28, 2-(2-acryloyl-2,6-diazaspiro[3.4]octan-6-yl)-6-(1,6-dimethyl-1H-indazol-7-yl)-4-(pyridin-2-ylmethoxy) benzonitrile]		+++ (+++ indicates binding activity greater than 75%)
C=CC(=O)N1CCC2(CCN(c3ccc(F)c(-c4c(C)ccc5[nH]ncc45)c3C#N)CC2)C1 [Compound I-94, 6-(2-acryloyl-2,8-diazaspiro[4.5]decan-8-yl)-3-fluoro-2-(5-methyl-1H-indazol-4-yl)benzonitrile]	+ (+ indicates binding activity greater than 0% and up to 50%)	
C=CC(=O)N1CC2(CCN(c3cccc(-c4c(C)ccc5[nH]ncc45)c3F)C2)C1 [Compound I-8, 1-(6-(2-fluoro-3-(5-methyl-1H-indazol-4-yl)phenyl)-2,6-diazaspiro[3.4]octan-2-yl)prop-2-en-1-one]	+ (+ indicates binding activity greater than 0% and up to 50%)	
CC#CC(=O)N1CC2(CCN(c3cc(OCc4ccccn4)cc(-c4c(C)ccc5[nH]ncc45)c3C#N)CC2)C1 [Compound I-51, 2-(2-(but-2-ynoyl)-2,7-diazaspiro[3.5]nonan-7-yl)-6-(5-methyl-1H-indazol-4-yl)-4-(pyridin-2-ylmethoxy) benzonitrile]	+ (+ indicates binding activity greater than 0% and up to 50%)	
C=CC(=O)N1CC2(CCN(c3cc(N4CCCC(O)C4)cc(-c4c(C)ccc5[nH]ncc45)c3C#N)C2)C1 (stereo not shown) [Compound I-31, 2-(2-acryloyl-2,6-diazaspiro[3.4]octan-6-yl)-4-(3-hydroxypiperidin-1-yl)-6-(5-methyl-1H-indazol-4-yl)benzonitrile]		+++ (+++ indicates binding activity greater than 75%)
C=CC(=O)N1CC2(CCN(c3cc(N4CC(N(C)C)C4)cc(-c4c(C)ccc5[nH]ncc45)c3C#N)C2)C1 [Compound I-26, 2-(2-acryloyl-2,6-diazaspiro[3.4]octan-6-yl)-4-(3-(dimethylamino)azetidin-1-yl)-6-(5-methyl-1H-indazol-4-yl)benzonitrile]		+++ (+++ indicates binding activity greater than 75%)
C=CC(=O)N1CC2(CCCN(c3cc(OCc4ccccn4)cc(-c4c(C)ccc5[nH]ncc45)c3C#N)C2)C1 [Compound I-78, 2-(2-acryloyl-2,6-diazaspiro[3.5]nonan-6-yl)-6-(5-methyl-1H-indazol-4-yl)-4-(pyridin-2-ylmethoxy) benzonitrile]	+ (+ indicates binding activity greater than 0% and up to 50%)	
C=CC(=O)N1CCC2(CC1)CN(c1cc(OCc3ccccn3)cc(-c3c(C)ccc4[nH]ncc34)c1C#N)C2 [Compound I-65, 2-(7-acryloyl-2,7-diazaspiro[3.5]nonan-2-yl)-6-(5-methyl-1H-indazol-4-yl)-4-(pyridin-2-ylmethoxy) benzonitrile]	+ (+ indicates binding activity greater than 0% and up to 50%)	
C=CC(=O)N1CC2(CCN(c3ccc(C#N)c(-c4c(C)ccc5[nH]ncc45)c3)CC2)C1 [Compound I-105, 4-(2-acryloyl-2,7-diazaspiro[3.5]nonan-7-yl)-2-(5-methyl-1H-indazol-4-yl)benzonitrile]	+ (+ indicates binding activity greater than 0% and up to 50%)	
C=CC(=O)N1CCC2(C1)CN(c1cccc(-c3c(C)ccc4[nH]ncc34)c1C#N)C2 [Compound I-9, 2-(6-acryloyl-2,6-diazaspiro[3.4]octan-2-yl)-6-(5-methyl-1H-indazol-4-yl)benzonitrile]	+ (+ indicates binding activity greater than 0% and up to 50%)	
C=CC(=O)N1CC2(CCN(c3ccc(C(F)(F)F)c(-c4c(C)ccc5[nH]ncc45)c3C#N)CC2)C1 [Compound I-112, 6-(2-acryloyl-2,7-diazaspiro[3.5]nonan-7-yl)-2-(5-methyl-1H-indazol-4-yl)-3-(trifluoromethyl) benzonitrile]	+ (+ indicates binding activity greater than 0% and up to 50%)	
C=CC(=O)N1CC2(CCN(c3ccc(F)c(-c4c(C)ccc5[nH]ncc45)c3C#N)C2)C1C (stereo not shown) [Compound I-134, 6-(2-acryloyl-1-methyl-2,6-diazaspiro[3.4]octan-6-yl)-3-fluoro-2-(5-methyl-1H-indazol-4-yl)benzonitrile]		++ (++ indicates binding activity from 50 to 75%)
C=CC(=O)N1CC2(CCN(c3cc(OC)cc(-c4c(C)ccc5[nH]ncc45)c3C#N)C2)C1 [Compound I-14, 2-(2-acryloyl-2,6-diazaspiro[3.4]octan-6-yl)-4-methoxy-6-(5-methyl-1H-indazol-4-yl)benzonitrile]	+++ (+++ indicates binding activity greater than 75%)	
C=CC(=O)N1CC2(CCN(c3cc(OCc4ccccn4)cc(-c4c(C)ccc5[nH]ncc45)c3C#N)C2)C1CC (stereo not shown) [Compound I-138]	++ (++ indicates binding activity from 50 to 75%)	
C=CC(=O)N1CC2(CCN(c3cc(N4CCOCC4)c(OC)c(-c4c(C)ccc5[nH]ncc45)c3C#N)CC2)C1 [Compound I-84, 6-(2-acryloyl-2,7-diazaspiro[3.5]nonan-7-yl)-3-methoxy-2-(5-methyl-1H-indazol-4-yl)-4-morpholino-benzonitrile]	+ (+ indicates binding activity greater than 0% and up to 50%)	
C=CC(=O)N1CC2(CCN(c3ccc(F)c(-c4c(C)ccc5[nH]ncc45)c3)CC2)C1 [Compound I-102, 1-(7-(4-fluoro-3-(5-methyl-1H-indazol-4-yl)phenyl)-2,7-diazaspiro[3.5]nonan-2-yl)prop-2-en-1-one]	+ (+ indicates binding activity greater than 0% and up to 50%)	
C=CC(=O)N1CC2(CCN(c3ccc(C)c(-c4c(C)ccc5[nH]ncc45)c3C#N)C2)C1 [Compound I-25, 6-(2-acryloyl-2,6-diazaspiro[3.4]octan-6-yl)-3-methyl-2-(5-methyl-1H-indazol-4-yl)benzonitrile]	++ (++ indicates binding activity from 50 to 75%)	
CC#CC(=O)N1CC2(CCN(c3cccc(-c4c(C)ccc5[nH]ncc45)c3C#N)C2)C1 [Compound I-4, 2-(2-(but-2-ynoyl)-2,6-diazaspiro[3.4]octan-6-yl)-6-(5-methyl-1H-indazol-4-yl)benzonitrile]	+ (+ indicates binding activity greater than 0% and up to 50%)	
C=CC(=O)N1CC2(CCN(c3cc(OCc4ccccn4)cc(-c4c(C)ccc5[nH]ncc45)c3C#N)C2)C1 [Compound I-20, 2-(2-acryloyl-2,6-diazaspiro[3.4]octan-6-yl)-6-(5-methyl-1H-indazol-4-yl)-4-(pyridin-2-ylmethoxy) benzonitrile]	+++ (+++ indicates binding activity greater than 75%)	
C=CC(=O)N1CC2(CCN(c3ccc(F)c(-c4c(C)ccc5[nH]ncc45)c3C#N)C2)C1 [Compound I-29, 6-(2-acryloyl-2,6-diazaspiro[3.4]octan-6-yl)-3-fluoro-2-(5-methyl-1H-indazol-4-yl)benzonitrile]		+++ (+++ indicates binding activity greater than 75%)
C=CC(=O)N1CC2(CCN(c3cccc(-c4c(C)ccc5[nH]ncc45)c3C#N)C2)C1C(C)C (stereo not shown) [Compound I-139, 2-(2-acryloyl-1-isopropyl-2,6-diazaspiro[3.4]octan-6-yl)-6-(5-methyl-1H-indazol-4-yl)benzonitrile]	+ (+ indicates binding activity greater than 0% and up to 50%)	
C=CC(=O)N1CC2(CCN(c3cc(N4CCOCC4)cc(-c4c(C)ccc5[nH]ncc45)c3C#N)CC2)C1 [Compound I-108, 2-(2-acryloyl-2,7-diazaspiro[3.5]nonan-7-yl)-6-(5-methyl-1H-indazol-4-yl)-4-morpholino-benzonitrile]	+ (+ indicates binding activity greater than 0% and up to 50%)	
C=CC(=O)N1CC2(CCN(c3ccc(OC4CCN(C)CC4)c(-c4c(C)ccc5[nH]ncc45)c3C#N)CC2)C1 [Compound I-100, 6-(2-acryloyl-2,7-diazaspiro[3.5]nonan-7-yl)-2-(5-methyl-1H-indazol-4-yl)-3-((1-methylpiperidin-4-yl)oxy)benzo-nitrile]	+ (+ indicates binding activity greater than 0% and up to 50%)	
C=CC(=O)N1CCC2(CCCN(c3cc(OCc4ccccn4)cc(-c4c(C)ccc5[nH]ncc45)c3C#N)C2)C1 (stereo not shown) [Compound I-62, 2-(2-acryloyl-2,7-diazaspiro[4.5]decan-7-yl)-6-(5-methyl-1H-indazol-4-yl)-4-(pyridin-2-ylmethoxy) benzonitrile]	+ (+ indicates binding activity greater than 0% and up to 50%)	
C=CC(=O)N1CCC2(CCN(c3cccc(-c4c(O)cccc4F)c3C#N)C2)C1 (stereo not shown) [Compound I-6, 3-(7-acryloyl-2,7-diazaspiro[4.4]nonan-2-yl)-2′-fluoro-6′-hydroxy-[1,1′-biphenyl]-2-carbonitrile]	+ (+ indicates binding activity greater than 0% and up to 50%)	
